From patent US20240216357A1 (SICHUAN HUIYU PHARMACEUTICAL CO., LTD., priority 2021, published 2024)
Counter-ions that a name gives are not always drawn.

Tested on: NCI-H1417 cells
Assay: In vitro cell proliferation detection (CellTiter-Glo, 7 days)
Assay type: cell-based
Conditions: Homo sapiens, 168 h; NCI-H1417 cells, 7 days, CellTiter-Glo; read-out: NCI-H1417 proliferation inhibition IC50

Row | IC50 [nM] | SMILES
1 | 2.16 | COc1ccc(-c2c(-c3ccc(C#N)c(F)c3)nc(N3CCC(N)CC3)c3c2cnn3C)cc1O [Example 285, 4-(7-(4-aminopiperidin-1-yl)-4-(3-hydroxy-4-methoxyphenyl)-1-methyl-1H-pyrazolo[3,4-c]pyridin-5-yl)-2-fluorobenzonitrile]
2 | > 1000 | COc1ccc(-c2nc(N3CCC(N)CC3)cc(C#N)c2-c2ccc(C#N)c(F)c2)cc1O [Example 274, 6-(4-aminopiperidin-1-yl)-3-(4-cyano-3-fluorophenyl)-2-(3-hydroxy-4-methoxyphenyl)pyridin-4-carbonitrile]
3 | 136 | COc1ccc(-c2cc(C#N)c(N3CCC(N)CC3)nc2-c2ccc(C#N)c(F)c2)cc1O [Example 282, 2-(4-aminopiperidin-1-yl)-6-(4-cyano-3-fluorophenyl)-5-(3-hydroxy-4-methoxyphenyl)nicotinon itrile hydrochloride]

Same assay, conditions: Homo sapiens, NCI-H1417, 168 h, read-out: NCI-H1417 proliferation inhibition IC50(nM)

Row | SMILES | IC50 [nM]
4 | Cc1ccc(-c2c(-c3ccc(C#N)cc3)nc3c(N4CCC[C@@H](N)C4)nccn23)cc1 [Example 5, (R)-4-(8-(3-aminopiperidin-1-yl)-3-(p-tolyl)imidazo[1,2-a]pyrazin-2-yl)benzonitrile hydrochloride] | 165

Same assay, conditions: NCI-H1417 cells, 7 days, CellTiter-Glo; read-out: NCI-H1417 proliferation inhibition IC50

Row | SMILES | IC50 [nM]
5 | CS(=O)(=O)N1CCN(c2cc(CCCN[C@@H]3C[C@H]3c3ccc(F)cc3)nn(-c3ccc(C#N)cc3)c2=O)CC1 [Example 260, 4-(3-(3-((1R,2S)-2-(4-fluorophenyl)cyclopropyl)amino)-5-(4-(methylsulfonyl)piperazin-1-yl)-6-oxypyridazine-1 (6H)-yl)benzonitrile formate] | 46.1

Molecular target: LSD1 (Homo sapiens (Human), UniProt O60341)
Assay: LSD1 enzyme activity detection (HTRF)
Assay type: biochemical
Conditions: HTRF, H3K4me1 substrate; read-out: Inhibition of enzymatic activity of LSD1 IC50

Row | SMILES | IC50 [nM]
6 | N#Cc1ccc(-c2nc(N3CCC(N)CC3)cc(O)c2-c2ccc3c(c2)OC(F)(F)O3)cc1F [Example 30, 4-(6-(4-aminopiperidin-1-yl)-3-(2,2-difluorobenzo[d][1,3]dioxol-5-yl)-4-hydroxypyridin-2-yl)-2-fluorobenzonitrile hydrochloride] | 213
7 | COc1ccc(-c2cnc(N3C4CCCC3CC(N)C4)c(C#N)c2-c2ccc(C#N)c(F)c2)cc1O (centres unmarked) [Example 75, 2-(3-amino-9-azabicyclo [3.3.1]nonan-9-yl)-4-(4-cyano-3-fluorophenyl)-5-(3-hydroxy-4-methoxyphenyl) nicotinonitrile] | 500
8 | Cc1noc2cc(-c3sc(C(=O)N4C5CCC4CC(N)C5)cc3-c3cccnc3)c(F)cc12 (centres unmarked) [Example 208, (3-amino-8-azabicyclo [3.2.1]octan-8-yl) (5-(5-fluoro-3-methylbenzo [d]isoxazol-6-yl)-4-(pyridin-3-yl)thiophen-2-yl) methanone hydrochloride] | 641
9 | Cc1ccc(-c2c(-c3ccc(C#N)cc3)cc3c(N4CCN(C)CC4)nncn23)cc1 [Example 195, 4-(1-(4-methylpiperazin-1-yl)-6-(p-tolyl)pyrrolo[1,2-d][1,2,4]triazine-7-yl)benzonitrile] | 208
10 | COc1ccc(-c2c(O)cc(N3CCC(N)CC3)nc2-c2ccc(C#N)c(F)c2)cc1OC [Example 33, 4-(6-(4-aminopiperidin-1-yl)-3-(3,4-dimethoxyphenyl)-4-hydroxypyridin-2-yl)-2-fluorobenzonitrile hydrochloride] | 210
11 | Cc1noc2cc(-c3sc(C(=O)N4C5CCC4CC(N)C5)cc3-c3cncnc3)c(F)cc12 (centres unmarked) [Example 206, (3-amino-8-azabicyclo [3.2.1]octan-8-yl)(5-(5-fluoro-3-methylbenzo[d]isoxazol-6-yl)-4-(pyrimidine-5-yl)thiophen-2-yl) methanone hydrochloride] | 432
12 | COc1ccc(-c2c(O)cc(NC3CCNCC3)nc2-c2ccc(C#N)c(F)c2)cc1F [Example 40, 2-fluoro-4-(3-(3-fluoro-4-methoxyphenyl)-4-hydroxy-6-(piperidin-4-ylamino)pyridin-2-yl)benzonitrile] | 280
13 | COc1ccc(-c2c(-c3ccc(C#N)c(C)c3)nc(N3C4CCC3CC(N)C4)n3ccnc23)cc1F (centres unmarked) [Example 184, 4-(5-(3-amino-8-azabicyclo[3.2.1]octane-8-yl)-8-(3-fluoro-4-methoxyphenyl)imidazolo[1,2-c]pyrimidin-7-yl)-2-methylbenzonitrile hydrochloride] | 110
14 | Cc1noc2cc(-c3sc(C(=O)N4C5CCC4CC(N)C5)cc3-c3ccc(S(N)(=O)=O)cc3)c(F)cc12 (centres unmarked) [Example 212, 4-(5-(3-amino-8-azabicyclo [3.2.1]octane-8-carbonyl)-2-(5-fluoro-3-methyl-benzo[d]isoxazol-6-yl)thiophen-3-yl)benzene-sulfonamide] | 207
15 | COc1ccc(-c2c(-c3ccc(C#N)c(C#N)c3)nc(N3C4CCC3CC(N)C4)n3ccnc23)cc1F (centres unmarked) [Example 181, 4-(5-(3-amino-8-azabicyclo [3.2.1]octane-8-yl)-8-(3-fluoro-4-methoxyphenyl)imidazolo[1,2-c]pyrimidin-7-yl) phthalonitrile hydrochloride] | 193
16 | Cc1noc2cc(-c3sc(C(=O)N4C5CCC4CC(N)C5)cc3-c3ccccn3)c(F)cc12 (centres unmarked) [Example 210, (3-amino-8-azabicyclo [3.2.1]octan-8-yl)(5-(5-fluoro-3-methylbenzo[d]isoxazol-6-yl)-4-(pyridin-2-yl)thiophen-2-yl)methanone] | 5520
17 | COc1ccc(-c2c(-c3cnc(C#N)nc3)nc(N3C4CCC3CC(N)C4)n3ccnc23)cc1F (centres unmarked) [Example 180, 5-(5-(3-amino-8-azabicyclo [3.2.1]octane-8-yl)-8-(3-fluoro-4-methoxyphenyl)imidazolo[1,2-c]pyrimidin-7-yl) pyrimidin-2-carbonitrile] | 77.1
18 | COc1cc(-c2c(-c3ccc(C#N)c(F)c3)nc(N3CCC(N)CC3)n3ccnc23)ccc1O [Example 141, 4-(5-(4-aminopiperidin-1-yl)-8-(4-hydroxy-3-methoxyphenyl)imidazolo[1,2-c]pyrimidin-7-yl)-2-fluorobenzonitrile formate] | 224
19 | Cc1noc2cc(-c3sc(C(=O)N4C5CCC4CC(N)C5)cc3-c3ccccc3)c(F)cc12 (centres unmarked) [Example 207, (3-amino-8-azabicyclo [3.2.1]octan-8-yl)(5-(5-fluoro-3-methylbenzo[d]isoxazol-6-yl)-4-phenyithio-phene-2-yl)methanone hydrochloride] | 1250
20 | Cc1noc2cc(-c3sc(C(=O)N4C5CCC4CC(N)C5)cc3-c3ncccn3)c(F)cc12 (centres unmarked) [Example 211] | 206
21 | COc1ccc(-c2cnc(N3C4CCC3CC(N)C4)c(C#N)c2-c2ccc(C#N)c(F)c2)cc1O (centres unmarked) [Example 81, 2-(3-amino-8-azabicyclo [3.2.1]octane-8-yl)-4-(4-cyano-3-fluorophenyl)-5-(3-hydroxy-4-methoxyphenyl) nicotinonitrile] | 671
22 | CS(=O)(=O)N1CCN(c2cc(CN[C@@H]3C[C@H]3c3ccc(F)cc3)nc(-c3ccc(N4CCOCC4)cc3)n2)CC1 [Example 265, (1R,2S)-2-(4-fluorophenyl)-N-((6-(4-(methylsulfonyl)piperazin-1-yl)-2-(4-morpholinophenyl)pyrimidin-4-yl)methyl) cyclopropane-1-amine] | 224
23 | COc1ccc(-c2cnc(N3CC4CCC(C3)C4N)c(C#N)c2-c2ccc(C#N)c(F)c2)cc1O (centres unmarked) [Example 74, 2-(8-amino-3-azabicyclo[3.2.1]octane-3-yl)-4-(4-cyano-3-fluorophenyl)-5-(3-hydroxy-4-methoxyphenyl) nicotinonitrile] | 166
24 | Cc1ccc(-c2c(-c3ccc(C#N)cc3)cc3c(N4CCC(N)CC4)ccnn23)cc1 [Example 198, hydrochloride] | 174
25 | COc1ccc(-c2cc(N3CCC(N)CC3)nc(-c3ccc(C#N)c(F)c3)c2OC)cc1F [Example 102, 4-(6-(4-aminopiperidin-1-yl)-4-(3-fluoro-4-methoxyphenyl)-3-methoxypyridin-2-yl)-2-fluoroben zonitrile] | 712
26 | Cc1noc2cc(-c3c(OCc4ccccc4)cc(N4C5CCC4CC(N)C5)nc3-c3ccc(C#N)c(F)c3)c(F)cc12 (centres unmarked) [Example 88, 4-(6-(3-amino-8-azabicyclo [3.2.1]octane-8-yl)-4-(benzyloxy)-3-(5-fluoro-3-methylbenzo[d]isoxazol-6-yl)pyridin-2-yl)-2-fluorobenzonitrile] | 566
27 | Cc1ccc(-c2c(-c3ccc(C#N)cc3)cc3c(N4CCCCC4)nccn23)cc1 [Example 191, 4-(1-(piperidin-1-yl)-6-(p-tolyl)pyrrolo[1,2-a]pyrazin-7-yl)benzonitrile] | 104
28 | COc1ccc(-c2c(C3CCC(C#N)CC3)nc(N3C4CCC3CC(N)C4)n3ccnc23)cc1F (centres unmarked) [Example 179, 4-(5-(3-amino-8-azadicyclo [3.2.1]octane-8-yl)-8-(3-fluoro-4-methoxyphenyl)imidazolo[1,2-c]pyrimidin-7-yl) cyclohexane-1-carbonitrile hydrochloride] | 938
29 | CC(C)(O)Cn1ncc2cc(F)c(-c3c(O)cc(N4CCC(N)CC4)nc3-c3ccc(C#N)c(F)c3)cc21 [Example 28, hydrochloride] | 441
30 | Cc1noc2cc(-c3sc(C(=O)N4C5CCC4CC(N)C5)cc3-c3ccc4cn[nH]c4c3)c(F)cc12 (centres unmarked) [Example 205, (3-amino-8-azabicyclo [3.2.1]octane-8-yl) (5-(5-fluoro-3-methylbenzo[d]isoxazol-6-yl)-4-(1H-indazol-6-yl)thiophen-2-yl)methanone hydrochloride] | 902
31 | Cc1noc2cc(-c3sc(C(=O)N4C5CCC4CC(N)C5)cc3-c3ccc(S(C)(=O)=O)cc3)c(F)cc12 (centres unmarked) [Example 213, (3-amino-8-azabicyclo [3.2.1]octan-8-yl) (5-(5-fluoro-3-methylbenzo [d]isoxazol-6-yl)-4-(4-(methyldimethylsulfoxide-16-sulfonyl)phenyl)thio-phen-2-yl)methanone] | 36.7

Same assay, conditions: read-out: Inhibition of enzymatic activity of LSD1 IC50

Row | SMILES | IC50 [nM]
32 | N#Cc1ccc(-c2nc(N3CCC(N)CC3)cc(O)c2-c2ccc3[nH]nc(Cl)c3c2)cc1F [Example 20, hydrochloride] | 166
